Reference: patent US20100292183A1, “TETRACYCLINE AND USES THEREOF” (priority 2009, published 2010)

Key:
[1] = doses between 12.5 and 300 mg twice daily; cited from earlier work
[2] = system: induced mouse models of atherosclerosis; assay: induced mouse models of atherosclerosis; format: in vivo, mice
Description: Inducing atherosclerotic plaque development in mice is disclosed in details in U.S. patent application Ser. No. 12/286,368, which is herein incorporated by reference in its entirety. These mouse models are used for testing tetracycline-acenocoumorol conjugate to determine their efficacy both on reducing progression of plaque development and symptoms of chronic inflammation. Mice purchased from vendors are used for in vivo atherosclerotic plaque development by multiple doses of plaque complexes by intra-peritoneal and intravenous routes as described U.S. patent application Ser. No. 12/286,368. […] Ovastatin, an established anti-atherosclerotic drug (Schwartz et al, 2001) is used for control purposes in these studies and administered by oral route.
Ovastatin, tetracycline, clopidogrel or any anti-coagulant individually and tetracycline-clopidogrel (0.1-5 mg/kg per day) are orally administrated to the symptomatic and asymptomatic atherosclerotic mice models for 8 to 12 weeks. Following administration of the drugs, mice with asymptomatic plaque development are euthanized and blood collected via cardiac puncture. The blood samples will be used test clotting or blood coagulation test to analyse anti-coagulation efficacy of drugs used.

Row | Structure (SMILES) | safety profile [1] | plaque accumulation, histochemical analysis of heart tissues ([2]; asymptomatic mice model, after treatment) | symptoms of plaque inflammation ([2]; mice with plaque induced chronic inflammation, compared to control animal without treatment)
1 | [H]/N=C(/N)c1ccc(NCc2nc3cc(C(=O)N(CCC(=O)O)c4ccccn4)ccc3n2C)cc1 [dabigatran] | good safety profile |  | 
2 | CC[C@H](C)C(=O)O[C@H]1C[C@@H](C)C=C2C=C[C@H](C)[C@H](CC[C@@H]3C[C@@H](O)CC(=O)O3)[C@H]21 [ovastatin] |  | reduced plaque accumulation | reduced symptoms of plaque inflammation
